From patent US20140350097A1, “TREATMENT OF HYPOTENSION ASSOCIATED WITH HEMODIALYSIS” (priority 2013, published 2014)

Test system: Sprague-Dawley rats
Test: 14-day infusion toxicity in Sprague-Dawley rats
Type: in vivo
Experimental: The safety profile of NOX-100 was further evaluated in Sprague-Dawley rats (10/sex/group for the main study and 24/sex/group for the satellite groups for plasma concentration determination). Rats were administered with NOX-100 at 0, 100, 500 or 2000 mg/kg/day by infusion over a period of 8 hours for 14 days.
The dose of 100 mg/kg/day is considered the no-effect-level in rats.

[1] = females, 500 mg/kg/day, 14 days

## CN(C[C@H](O)[C@@H](O)[C@H](O)[C@H](O)CO)C(=S)S [NOX-100, N-methyl-D-glucamine dithiocarbamate]
2000 mg/kg/day, 14 days
  microscopic findings in urinary bladder and duodenum: hyperplasia of the urinary bladder and increased mitotic figures and dilatation of lymphatic vessels in the duodenum
8-hour infusion, 14 days
  clinical chemistry, urinary output and kidney weight changes: Elevations in blood urea nitrogen and creatinine, increases in urinary output and kidney weights
  clinical signs of salivation: noted mostly at 2000 mg/kg/day and occasionally in the lower dose groups
  microscopic changes in the kidney: tubular epithelial basophilia, pyelitis at the papillary tip and hyperplasia of the pelvic transitional epithelium
100, 500 or 2000 mg/kg/day, 8-hour infusion, 14 days
  treatment related deaths: no treatment related deaths
100-2000 mg/kg/day
  dose concentration relationship: proportional dose concentration relationship
Each day
  mean plasma concentrations between 4 to 7.75 hours from the start of infusion: remained constant
[1]
  kidney weights: increased
  microscopic changes (kidney): only seen in one rat
rat, in vivo
  mean plasma concentrations between Days 1, 7 and 14: similar
  mean steady state plasma concentrations, males versus females: no differences
rats, 8-hour infusion, 14 days
  no-effect-level: 100 mg/kg/day
rats, doses of up to 2000 mg/kg/day, 14 consecutive days
  observable toxicity: little observable toxicity
